Measurements: the supplement of paper PMC4862054

Experiments:
Details in all cases: incubation time: 72 h
[1] = tested on: BT-474; experiment: normalised response (% of control), CellTox Green; higher = less cell death (100 = DMSO, 0 = benzethonium chloride kill control)
In short: (§1)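 After 72 h with compound in 384-well plates, breast cancer cell lines seeded as 20 µl suspension were read for CellTox Green fluorescence at 485/520 nm. CellTiter-Glo luminescence was then read after 10 min at room temperature. Compound was present at 5 concentrations in 10-fold steps over a 10,000-fold range set per compound, and plates were normalised to 0.1 % DMSO (100) and a positive kill control (0). Values are normalised signals, each at a single concentration.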

[2] = tested on: BT-549; experiment: as above
In short: as §1

[3] = tested on: CAL-120; experiment: as above
In short: as §1

[4] = tested on: CAL-148; experiment: as above
In short: as §1

[5] = tested on: CAL-51; experiment: as above
In short: as §1

[6] = tested on: CAL-85-1; experiment: as above
In short: as §1

[7] = tested on: DU-4475; experiment: as above
In short: as §1

[8] = tested on: HCC1599; experiment: as above
In short: as §1

[9] = tested on: HCC1937; experiment: as above
In short: as §1

[10] = tested on: HDQ-P1; experiment: as above
In short: as §1

[11] = tested on: Hs578T; experiment: as above
In short: as §1

[12] = tested on: MCF-10A; experiment: as above
In short: as §1

[13] = tested on: MDA-MB-231; experiment: as above
In short: as §1

[14] = tested on: MDA-MB-436; experiment: as above
In short: as §1

[15] = tested on: MDA-MB-453; experiment: as above
In short: as §1

[16] = tested on: MDA-MB-468; experiment: as above
In short: as §1

[17] = tested on: MFM-223; experiment: as above
In short: as §1

[18] = tested on: BT-474; experiment: normalised response (% of control), CellTiter-Glo; higher = more viable cells (100 = DMSO, 0 = benzethonium chloride kill control)
In short: as §1

[19] = tested on: BT-549; experiment: as above
In short: as §1

[20] = tested on: CAL-120; experiment: as above
In short: as §1

[21] = tested on: CAL-148; experiment: as above
In short: as §1

[22] = tested on: CAL-51; experiment: as above
In short: as §1

[23] = tested on: CAL-85-1; experiment: as above
In short: as §1

[24] = tested on: DU-4475; experiment: as above
In short: as §1

[25] = tested on: HCC1143; experiment: as above
In short: as §1

[26] = tested on: HCC1599; experiment: as above
In short: as §1

[27] = tested on: HCC1937; experiment: as above
In short: as §1

[28] = tested on: HDQ-P1; experiment: as above
In short: as §1

[29] = tested on: Hs578T; experiment: as above
In short: as §1

[30] = tested on: MCF-10A; experiment: as above
In short: as §1

[31] = tested on: MDA-MB-231; experiment: as above
In short: as §1

[32] = tested on: MDA-MB-436; experiment: as above
In short: as §1

[33] = tested on: MDA-MB-453; experiment: as above
In short: as §1

[34] = tested on: MDA-MB-468; experiment: as above
In short: as §1

[35] = tested on: MFM-223; experiment: as above
In short: as §1

[36] = tested on: SK-BR-3; experiment: as above
In short: as §1

[37] = tested on: HCC1143; experiment: normalised response (% of control), CellTox Green; higher = less cell death (100 = DMSO, 0 = benzethonium chloride kill control)
In short: as §1

SMILES | normalised response [1] | normalised response [2] | normalised response [3] | normalised response [4] | normalised response [5] | normalised response [6] | normalised response [7] | normalised response [8] | normalised response [9] | normalised response [10] | normalised response [11] | normalised response [12] | normalised response [13] | normalised response [14] | normalised response [15] | normalised response [16] | normalised response [17] | normalised response [18] | normalised response [19] | normalised response [20] | normalised response [21] | normalised response [22] | normalised response [23] | normalised response [24] | normalised response [25] | normalised response [26] | normalised response [27] | normalised response [28] | normalised response [29] | normalised response [30] | normalised response [31] | normalised response [32] | normalised response [33] | normalised response [34] | normalised response [35] | normalised response [36] | normalised response [37]
CN1CCc2c(c3ccccc3n2Cc2ccc(C(=O)NO)cc2)C1 [Tubastatin A] (1000 nM) | 99.2% | 99.6% | 102% | 104% | 91.3% | 111% | 105% | 93.7% | 98% | 94.3% | 81.9% | 110% | 98.7% | 106% | 105% | 131% | 101% | 91.7% | 101% | 93.3% | 103% | 53.5% | 94.7% | 96.5% | 94.3% | 104% | 92.9% | 87.9% | 101% | 112% | 91.7% | 97.5% | 92.4% | 90.8% | 96.9% | 100% | 
CC(C)n1nc(-c2ccc3oc(N)nc3c2)c2c(N)ncnc21 [INK128] (100 nM) | 96.5% | 115% | 97.1% | 58.8% | 87.6% | 101% | 94% | 95.5% | 96.1% | 108% | 65.8% | 95.8% | 108% | 94.4% | 26% | 137% | 93.9% | 50.4% | 30.7% | 30.6% | 32.7% | 29.3% | 35.4% | 66% | 39.9% | 68% | 59.7% | 42.6% | 35.1% | 43.5% | 50.3% | 48.6% | 37.2% | 39.5% | 32.2% | 22.6% | 8.7%
CC[C@H](CC#N)OC(=O)N[C@@H](C)c1cccc(NC(=O)Nc2ccc(-c3cnco3)c(OC)c2)c1 [AVN944] (1000 nM) | 86.3% | 127% | 99.9% | -21.7% | 63.5% | 97% | 88.2% | 85% | 76.8% | 98.8% | 32% | 112% | 81.8% | 74% | 90.3% | 131% | 44.7% | 58.7% | 36.3% | 59.9% | 34.3% | 24.1% | 40.8% | 29.2% | 42.3% | 48.1% | 52.7% | 46.1% | 44.4% | 58% | 53.5% | 42.7% | 84.4% | 37.5% | 71.3% | 51.3% | 56.6%
N[C@@H](Cc1ccc(N(CCCl)CCCl)cc1)C(=O)O [Melphalan] (1250 nM) | -13.4% | 28.1% | 72.2% | 4.59% | -30.1% | -12% | 51.8% | 45.5% | 18.1% | -17.2% | 35.8% | -50.4% | -55.7% | 84% | 25.6% | -18.1% | 10.1% | 1.75% | 22.1% | 50% | 7.68% | 0.26% | 0.23% | 0% | 34.5% | 2.61% | 4.2% | 1.18% | 16.4% | 0.24% | 0.06% | 9.28% | 0.2% | 0.81% | 0.49% | -0.01% | 95.9%
CCCc1cc(C)[nH]c(=O)c1CNC(=O)c1cc(-c2ccnc(N3CCN(C)CC3)c2)cc2c1cnn2C(C)C [GSK343] (1000 nM) | 97.9% | 107% | 96.1% | 98.2% | 82.5% | 98% | 94.6% | 91.5% | 121% | 72.7% | 73.9% | 107% | 106% | 79.6% | 97.6% | 183% |  | 103% | 92.9% | 95% | 77.9% | 73.8% | 101% | 89.5% | 95.3% | 95.9% | 103% | 103% | 101% | 96.4% | 97.3% | 99.1% | 80.4% | 87% | 90.7% | 83.6% | 98.9%
COc1cc2c(cc1-c1c(C)noc1C)ncc1[nH]c(=O)n([C@H](C)c3ccccn3)c12 [I-BET151] (1000 nM) | 97.2% | 93.6% | 91.8% |  | 89.2% | 83.8% | 94.7% | 97.9% | 42.4% |  | 79.2% | 109% | 123% | 99.7% | 106% | 117% | 101% | 77.8% | 57.5% | 71.2% | 101% | 87.4% | 57.4% | 82.9% | 87.3% | 97.3% | 79.5% | 82.9% | 52.6% | 74% | 85.7% | 94.7% | 68.4% | 86.3% | 72% | 82% | 105%
CC(C)NC[C@@H](C(=O)N1CCN(c2ncnc3c2[C@H](C)C[C@H]3O)CC1)c1ccc(Cl)cc1 [GDC-0068] (1000 nM) | 74.3% | 90.5% | 99.3% | 34.3% | 89.6% | 113% | 102% | 93.2% | 115% | 105% | 101% | 74.4% | 106% | 113% | 97.8% | 95.5% | 86.1% | 89.5% | 70.2% | 81.4% | 19% | 60.5% | 85.8% | 91.9% | 89.3% | 103% | 79% | 65.5% | 85.4% | 82.8% | 92.4% | 89.1% | 53.6% | 60.9% | 31.7% | 67.2% | 121%
Cn1cc(C[C@@H](N)C(=O)O)c2ccccc21 [1-methyl-D-tryptophan] (500 nM) | 99.3% |  | 99.3% | 91.4% | 95.5% | 98.8% | 101% | 85.2% |  | 107% | 66.7% | 113% | 95.6% | 88.9% | 103% | 143% | 84.3% | 97.6% | 105% | 105% | 89.7% | 81.3% | 100% | 94.4% | 94.8% | 115% | 99.3% | 107% | 115% | 104% | 96.6% | 101% | 105% | 101% | 92.7% | 92.7% | 94.1%
CO[C@H]1C[C@@H]2CC[C@@H](C)[C@@](O)(O2)C(=O)C(=O)N2CCCC[C@H]2C(=O)O[C@H]([C@H](C)C[C@@H]2CC[C@@H](O)[C@H](OC)C2)CC(=O)[C@H](C)/C=C(\C)[C@@H](O)[C@@H](OC)C(=O)[C@H](C)C[C@H](C)/C=C/C=C/C=C/1C [Sirolimus] (10 nM) | 94.8% | 87.2% | 105% | 52.9% | 104% | 108% | 102% | 90.7% | 97.7% | 109% | 59.7% | 104% | 116% | 69.6% | 107% | 157% | 91.1% | 83.5% | 58.3% | 67.3% | 67.1% | 65.5% | 63% | 88.5% | 69.1% | 98.8% | 81.5% | 82.8% | 67.5% | 102% | 93.9% | 79.1% | 66.2% | 51.8% | 70.9% | 66.4% | 115%
